According to article PMC12311259, “Antifibrotic effects of specific targeting of the 5‐hydroxytryptamine 2B receptor (5‐HT2BR) in murine models and ex vivo models of scleroderma skin” (Arthritis & Rheumatology (Hoboken, N.j.), 2025):
pKi: −log10 of the molar value.

What was measured:
5-HT2CR = target: T1, 5-HT2CR (Homo sapiens, UniProt P28335); test: Radioligand binding assay, CHO-K1 cells overexpressing human receptor (Eurofins Panlabs); settings: read-out: inhibition constant (Ki), 5-HT2CR
T1 construct: 355200 (GTPγS); host or cells: CHO-K1
T1 sequence (P28335 33-458): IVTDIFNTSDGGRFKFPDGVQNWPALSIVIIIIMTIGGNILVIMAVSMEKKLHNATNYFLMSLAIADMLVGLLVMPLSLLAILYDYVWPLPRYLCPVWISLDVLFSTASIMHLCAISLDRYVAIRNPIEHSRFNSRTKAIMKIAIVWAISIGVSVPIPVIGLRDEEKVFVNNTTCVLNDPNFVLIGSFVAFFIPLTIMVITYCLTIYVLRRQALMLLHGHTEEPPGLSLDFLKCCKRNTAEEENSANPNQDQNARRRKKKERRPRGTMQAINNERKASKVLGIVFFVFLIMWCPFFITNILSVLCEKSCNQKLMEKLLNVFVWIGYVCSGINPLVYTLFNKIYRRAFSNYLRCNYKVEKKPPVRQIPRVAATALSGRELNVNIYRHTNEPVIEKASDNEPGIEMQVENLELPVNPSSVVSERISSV
Description: (§1) The binding profile of AM1476 was evaluated for binding to human 5‐HT2AR, 5‐HT2BR, and 5‐HT2CR in radioligand binding assays using Chinese hamster ovary (CHO‐K1) cells overexpressing human receptors (in vitro assays 271650, 271700, and 271800; Eurofins Panlabs Discovery). AM1476 was evaluated at 0.1, 1, 10, 100, 1,000, and 10,000 nM (5‐HT2BR) or at 1, 10, 100, 1,000, and 10,000 nM (5‐HT2AR and 5‐HT2CR). Human 5‐HT2AR and 5‐HT2BR functionality was measured with homogeneous time‐resolved fluorescence quantification of IP1 accumulation in CHO‐K1 cells (in vitro assays 355250 and 355260). Compounds creating a ≥50% inhibition of 5‐HT (5 nM) induced fluorescence response specified receptor antagonist activity. 5‐HT2CR functionality was assessed with [35S] GTPγS for quantification of bound GTPγS. Compounds creating a ≥50% inhibition of 5‐HT (100 nM) induced [35S] GTPγS binding response specified receptor antagonist activity (in vitro assay 355200). AM1476 was evaluated at 0.1, 0.3, 1, 3, 10, 30, and 300 nM (5‐HT2BR) or 1, 10, 100, 1,000, and 10,000 nM (5‐HT2AR and 5‐HT2CR). A nonlinear least squares regression analysis was used to determine half‐maximal inhibitory concentration (IC50) values. Mouse 5‐HT2BR functionality was measured in a calcium influx assay (Charles River) in CHO‐KI cells expressing the mouse 5‐HT2BR using a calcium sensitive dye and a fluorescence imaging plate reader (FLIPRTETRA) instrument. AM1476 was evaluated at 0.3, 1, 3, 10, 30, 100, 300, and 1,000 nM.

human 5-HT2AR = target: T2, human 5-HT2AR (Homo sapiens, UniProt P28223); test: as above; settings: read-out: inhibition constant (Ki), 5-HT2AR
T2 construct: 355250 (IP1); host or cells: CHO-K1
T2 sequence (P28223 whole entry): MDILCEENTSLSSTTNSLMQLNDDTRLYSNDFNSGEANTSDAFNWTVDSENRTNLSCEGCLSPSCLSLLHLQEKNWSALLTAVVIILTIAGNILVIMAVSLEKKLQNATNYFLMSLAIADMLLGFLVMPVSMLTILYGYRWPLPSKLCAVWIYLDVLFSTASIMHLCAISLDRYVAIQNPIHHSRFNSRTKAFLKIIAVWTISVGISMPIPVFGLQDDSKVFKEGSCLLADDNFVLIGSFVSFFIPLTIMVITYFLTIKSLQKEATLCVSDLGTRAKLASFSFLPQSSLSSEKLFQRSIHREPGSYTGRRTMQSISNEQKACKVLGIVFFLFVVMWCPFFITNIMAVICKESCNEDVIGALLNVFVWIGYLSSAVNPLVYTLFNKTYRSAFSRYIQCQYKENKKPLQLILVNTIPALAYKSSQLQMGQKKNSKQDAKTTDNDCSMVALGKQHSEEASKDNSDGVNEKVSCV
Description: as §1

human 5-HT2BR = target: T3, human 5-HT2BR (Homo sapiens, UniProt P41595); test: as above; settings: read-out: inhibition constant (Ki), human 5-HT2BR
T3 construct: 355260 (IP1); host or cells: CHO-K1
T3 sequence (P41595 whole entry): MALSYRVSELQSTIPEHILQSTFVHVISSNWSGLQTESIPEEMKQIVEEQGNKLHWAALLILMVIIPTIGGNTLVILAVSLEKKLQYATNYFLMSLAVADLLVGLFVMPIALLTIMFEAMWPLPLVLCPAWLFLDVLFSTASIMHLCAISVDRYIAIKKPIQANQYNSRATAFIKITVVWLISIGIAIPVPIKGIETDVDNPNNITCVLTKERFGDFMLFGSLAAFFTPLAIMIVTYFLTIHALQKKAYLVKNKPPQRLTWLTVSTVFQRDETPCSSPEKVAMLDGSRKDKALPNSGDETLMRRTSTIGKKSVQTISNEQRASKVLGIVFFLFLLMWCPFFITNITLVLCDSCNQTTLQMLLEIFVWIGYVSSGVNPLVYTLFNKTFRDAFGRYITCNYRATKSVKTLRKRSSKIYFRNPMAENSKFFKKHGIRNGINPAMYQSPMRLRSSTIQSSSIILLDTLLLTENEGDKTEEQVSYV
Description: as §1

Adrenergic α1D (hu) = target: T4, Adrenergic α1D (hu) (Homo sapiens, UniProt P25100); test: Functionality assay, IP1, Eurofins Panlabs 302080; type: cell-based
T4 construct: Eurofins Panlabs 302080
T4 sequence (P25100 whole entry): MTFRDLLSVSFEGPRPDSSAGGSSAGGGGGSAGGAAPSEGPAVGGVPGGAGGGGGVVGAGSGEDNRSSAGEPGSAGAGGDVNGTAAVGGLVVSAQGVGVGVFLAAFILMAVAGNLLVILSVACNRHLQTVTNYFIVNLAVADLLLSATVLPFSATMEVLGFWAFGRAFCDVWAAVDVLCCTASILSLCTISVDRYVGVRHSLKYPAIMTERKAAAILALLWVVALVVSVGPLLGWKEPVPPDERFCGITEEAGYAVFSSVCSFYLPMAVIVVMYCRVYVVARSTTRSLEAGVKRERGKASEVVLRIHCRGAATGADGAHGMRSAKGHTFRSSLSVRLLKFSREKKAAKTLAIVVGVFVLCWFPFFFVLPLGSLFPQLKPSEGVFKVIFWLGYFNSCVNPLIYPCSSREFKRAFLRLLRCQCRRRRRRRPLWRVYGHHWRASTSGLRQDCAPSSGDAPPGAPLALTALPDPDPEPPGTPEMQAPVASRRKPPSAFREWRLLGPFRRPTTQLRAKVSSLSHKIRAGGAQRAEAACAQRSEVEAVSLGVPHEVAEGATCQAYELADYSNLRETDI

Adrenergic β1 (hu) = target: T5, Adrenergic β1 (hu) (Homo sapiens, UniProt P08588); test: Functionality assay, Adenylyl Cyclase, Eurofins Panlabs 302230; type: cell-based
T5 construct: Eurofins Panlabs 302230
T5 sequence (P08588 whole entry): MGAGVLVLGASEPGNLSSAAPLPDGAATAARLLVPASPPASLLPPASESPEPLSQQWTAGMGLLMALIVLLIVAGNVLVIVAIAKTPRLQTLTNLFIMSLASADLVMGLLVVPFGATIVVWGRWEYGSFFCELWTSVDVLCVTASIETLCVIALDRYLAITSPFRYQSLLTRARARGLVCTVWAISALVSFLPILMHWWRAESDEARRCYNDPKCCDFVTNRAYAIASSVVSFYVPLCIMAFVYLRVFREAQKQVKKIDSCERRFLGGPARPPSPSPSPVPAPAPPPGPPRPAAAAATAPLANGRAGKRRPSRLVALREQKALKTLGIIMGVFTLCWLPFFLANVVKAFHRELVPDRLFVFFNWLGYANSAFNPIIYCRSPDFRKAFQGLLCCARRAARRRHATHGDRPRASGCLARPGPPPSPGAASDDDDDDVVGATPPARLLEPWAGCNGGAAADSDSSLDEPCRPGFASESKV
Excerpt: Effects were considered significant if AM1476's mean value was three or more SDs above the vehicle control mean in the agonist assay or three or more SDs below the positive control agonist (5‐nM α‐methylserotonin) mean in the antagonist assay. AM1476 was screened for selectivity against approximately 200 targets using a Eurofins Panlabs Spectrum screen panel including enzymatic and receptor binding assays.

[1] = tested on: cGvHD-induced skin fibrosis; test: Sclerodermatous cGvHD mouse model (B10.D2 to BALB/c), skin fibrosis incl. RNASeq and immunofluorescence of skin; type: in vivo
Description: AM1476 was dissolved in sterile distilled water for the ex vivo and in vivo experiments. A concentration of 30 μM was applied for the ex vivo experiment. For the in vivo experiments, 1, 3, or 10 mg/kg was administered orally once or twice daily.
The B10.D2→BALB/c (H‐2d) minor histocompatibility antigen–mismatched model was performed as described.[9], [10] Briefly, female BALB/c (H‐2d) mice were purchased from Janvier. Male B10.D2 (H‐2d) mice were initially purchased from Jackson Laboratory. All mice were maintained in specific pathogen‐free conditions with sterile pellet food and water and a normal day–night cycle. For isolation of unfractionated bone marrow cells, tibial and femoral bones were prepared under sterile conditions. Phosphate buffered saline (PBS) was used to flush bone marrow cells from bone marrow cavities. Subsequently, bone marrow cells were filtered through 70‐μm nylon meshes (BD Biosciences), followed by erythrocyte hemolysis. The remaining bone marrow cells were kept on ice until transplantation. Transplantation of bone marrow cells and splenocytes was performed as follows: Recipient mice (BALB/c [H‐2d]) eight weeks of age received total body irradiation with 750 cGy. Six hours after irradiation, all BALB/c (H‐2d) recipients received bone marrow from either BALB/c (H‐2d) in a syngeneic transplantation manner or B10.D2 (H‐2d) in an allogeneic transplantation manner. For transplantation, 5 × 10[6] splenocytes and 2 × 10[6] bone marrow cells from donor mice were resuspended in 0.2 mL of PBS and injected via tail veins.[9], [10] To reflect the clinical situation with treatment initiation upon clinical signs of chronic graft‐versus‐host disease (cGvHD), treatment was started 21 days after bone marrow transplantation (BMT) and thus after the first clinically detectable manifestations of cGvHD in allogeneically transplanted mice. The outcome of treatment was analyzed seven weeks after transplantation. Eight mice per group were analyzed.
Mice were monitored clinically on a daily basis for behavior, activity, texture of the fur, weight, and consistency of the stool.[13] After the mice were killed, a gross macroscopic evaluation of the lungs and the skin was performed.
Recipient mice were clinically monitored on a daily basis from the day of transplantation to the indicated days after transplantation to determine the incidence and severity of cutaneous cGvHD as well as mobility, diarrhea, and weight loss.[10], [14] The following scoring system for cutaneous cGvHD was used: healthy appearance = 0; skin lesions with alopecia <1 cm[2] in area = 1; skin lesions with alopecia 1 to 2 cm[2] in area = 2; and skin lesions with alopecia >2 cm[2] in area = 3.
Skin samples were fixed in 4% formalin for six hours and embedded in paraffin. Five‐micrometer sections were cut and stained with hematoxylin and eosin (H&E). The dermal thickness was quantified on H&E‐stained sections using images captured with a light microscope (Nikon eclipse 80i) at 100‐fold magnification by manually measuring the distance between the epidermal‐dermal junction and the dermal‐subcutaneous fat junction at four sites per mouse.[15], [16] For lung samples, the whole left lung was fixed in 4% formalin for six hours and embedded in paraffin. Five‐micrometer sections were cut and stained with trichrome and sirius red. Histologic readouts were evaluation of the fibrotic area as the percentage of the total lung area in sirius red–stained sections (two sections per mouse) and quantification of pulmonary changes using the Ashcroft score (four sections per mouse).[17], [18]
The amount of collagen protein in skin and lung samples was determined by hydroxyproline assay.[19], [20] After digestion in 6 M HCl for three hours at 120°C, the pH of the samples was adjusted to a pH range of 6–7 with 6 M NaOH. Afterward, 0.06 M chloramine T was added to each sample and incubated for 20 minutes at room temperature.

[2] = treatment from day 21 after BMT, vs vehicle-treated mice seven weeks after BMT

Work on `C[C@@H]1CN(C(=N)N)N=C1c1ccc(F)cc1O` [AM1476] yielded a pKi (5-HT2CR) of 7.22, a pKi (human 5-HT2AR) of 6.10 and a pKi (human 5-HT2BR) of 8.22. The IC50 (Adrenergic α1D (hu)) was 7760 nM, the “agonistic activity, Adrenergic α1D” value (Adrenergic α1D (hu); at 30 µM) was “No significant agonistic activity at 30 µM” and the IC50 (Adrenergic β1 (hu)) was 32500 nM. For the same molecule, the “agonistic activity, Adrenergic β1” value (Adrenergic β1 (hu); at 300 µM) was “No significant agonistic activity at 300 µM”, the “antifibrotic effects, comparison of doses” value ([1]; 10 mg/kg bid and 10 mg/kg qd (comparable to each other) vs 1 mg/kg bid) was “more pronounced than with 1 mg/kg bid” and the “hydroxyproline content, skin, vs mice killed after three weeks” value ([1]; 10 mg/kg qd) was “significant reduction”. The “number of CD45+ leukocytes in skin” value ([1]; all doses) was “none of the concentrations of AM1476 reduced”, the “myofibroblast counts vs mice killed three weeks after BMT” value ([1]; all three doses) was “significantly lower” and the “tolerability (clinical examination, gross necropsy, histology)” value ([1]; all three doses (1 mg/kg bid, 10 mg/kg qd, 10 mg/kg bid), oral) was “well tolerated without obvious signs of toxicity”. For the same molecule, the “AAM (alternatively activated M2 macrophage) counts in the skin” value ([1]; all three doses, statistically significant for 10 mg/kg qd and 10 mg/kg bid) was “reduction of AAM accumulation”, the “accumulation of hydroxyproline, skin” value [1, 2] was “reduced” and the dermal thickening [1, 2] was “reduced”. For the same molecule, the “myofibroblast differentiation, skin” value [1, 2] was “reduced”.
